According to patent US9879303B2, “Chromogenic glucuronidase substrates and uses” (Glycosynth Limited, priority 2013, dated 2018):
Counter-ions that a name gives are not always drawn.

Test system: E. coli clinical isolates
Assay: screen of strains on agar plates (CPS ID 3 or Columbia agar)
Assay type: cell-based
Design: key to colour: Red, Green, Black or Purple mean strong colour; Red, Green, Black or Purple mean strong colour; Red, Green, Black or Purple mean strong colour; Red, Green, Black or Purple mean strong colour; +/− means less colour than strong; Tr means a trace of colour, less than +/−; — means no colour
Conditions: for colour: 37° C. 18 hours
Source text: In order to obtain a fuller picture of the sensitivity of the substrates, they were screened with 100 different clinical isolates of E. coli in a liquid medium containing FAC. The isolates were chosen at random from the Microbiology Department, Freeman Hospital, Newcastle Upon Tyne, UK. The effectiveness of the new substrates was compared with three other media which all contained indoxyl-β-D-glucuronides. One was a commercial medium, CPS ID 3 (bioMérieux SA, Lyon, France). […] This medium was employed as a control. Among the β-D-glucuronidase producing strains of E. coli there is a large variation in the quantity of the enzyme produced and it is almost certain that the CPS ID 3 medium has been rigorously optimised to allow good growth of all the target organisms and maximum expression of the target enzymes. Therefore, two indoxyl glucuronides, X-β-D-glucuronide CHA salt and Rose-β-D-glucuronide CHA salt were also tested in a simple agar medium to allow a direct comparison of the sensitivity of these Indoxyl glucuronides when used in a medium that has not been optimised for the growth of the target organism. The comparison of the results for Rose-β-D-glucuronide and the CPS ID 3 medium was of particular significance as the commercial medium also uses Rose-β-D-glucuronide for the detection of E. coli. For consistency, the four glucuronides were all chosen as their CHA salts. As already stated, it is not anticipated that the salt form is critical to their performance. Currently. X-β-D-glucuronide is often used as either the CHA salt or the sodium salt. Brenner and colleagues [K. P. Brenner et al, Appl. Environ. Microbiol., 59, 3534-3544, (1993)] found no difference in the performance of the CHA and sodium salt forms with their application using indoxyl-β-D-glucuronide, neither in respect of colour development nor in the recovery of E. coli.
The two indoxyl glucuronides used produce insoluble endpoints following hydrolysis, as does the CPS ID 3 medium. It was therefore necessary to test these two substrates on agar plates. In contrast, catechol-β-D-glucuronide (1) and DHN-β-D-glucuronide (2b) give much more soluble endpoints best suited to liquid media and were therefore tested in a broth medium. Each broth was prepared using proteose peptone (Oxoid, Basingstoke, UK) (2 g), NaCl (1 g) and FAC (100 mg) in DI water (180 mL). This mixture was autoclaved and cooled to room temperature before being dispensed into bijoux (100×1.8 mL). Catechol β-D-glucuronide CHA salt (1) or DHN-β-D-glucuronide CHA salt (2b) (60 mg) were each dissolved in water (20 mL) and filtered to sterilize before being aseptically dispensed into successive bijoux (0.2 mL) containing the broth solution. The broth/substrate solutions were then inoculated with bacterial suspensions made up to 0.5 McFarland standard (2 μL per bijoux). X-β-D-glucuronide CHA salt (Glycosynth Ltd, Warrington, UK) (10 mg) was dissolved in NMP (200 μL). Rose-β-D-glucuronide CHA salt (Glycosynth Ltd, Warrington, UK) (20 mg) was dissolved in NMP (200 μL). These solutions were then added to Columbia agar (Oxoid, Basingstoke, UK) (100 mL) and inoculated with bacterial suspensions made up to 0.5 McFarland standard (1 μL). The plates and broths were incubated at 37° C. for 18 hours in air.

[1] = 100 E. coli strains after 18 h incubation

O=C(O)[C@H]1O[C@@H](Oc2c[nH]c3ccc(Br)c(Cl)c23)[C@H](O)[C@@H](O)[C@@H]1O [X-β-D-glucuronide CHA salt, 5-bromo-4-chloro-3-indolyl β-D-glucuronide]
% Sensitivity [1]: 79%
Negative strains [1]: 21
Positive strains [1]: 79
colour (E. coli 260262P): Green
colour (E. coli 260280Z): Green
colour (E. coli 260310H): Green
colour (E. coli 260313A): —
colour (E. coli 260316T): —
colour (E. coli 260327V): Green
colour (E. coli 260330Y): Green
colour (E. coli 260333P): —
colour (E. coli 260345F): Green
colour (E. coli 260348K): Green
colour (E. coli 260354W): Green
colour (E. coli 260364H): —
colour (E. coli 260370C): Green
colour (E. coli 260375E): Green
colour (E. coli 260390B): —
colour (E. coli 260396Z): Green
colour (E. coli 260398Q): Green
colour (E. coli 260400N): —
colour (E. coli 260401Q): Green
colour (E. coli 260402H): Green
colour (E. coli 260404W): Green
colour (E. coli 260405P): Green
colour (E. coli 260406A): —
colour (E. coli 260406Y): Green
colour (E. coli 260407F): Green
colour (E. coli 260408C): Green
colour (E. coli 260411Z): Green
colour (E. coli 260412Q): Green
colour (E. coli 260414H): Green
colour (E. coli 260415Y): Green
colour (E. coli 260416W): —
colour (E. coli 260417P): Green
colour (E. coli 260422Y): Green
colour (E. coli 260424P): Green
colour (E. coli 260425A): Green
colour (E. coli 260426F): Green
colour (E. coli 260428T): Green
colour (E. coli 260431N): Green
colour (E. coli 260432E): Green
colour (E. coli 260433H): Green
colour (E. coli 260434Y): Green
colour (E. coli 260435W): Green
colour (E. coli 260436P): Green
colour (E. coli 260437A): —
colour (E. coli 260438F): Green
colour (E. coli 260439C): Green
colour (E. coli 260440S): Green
colour (E. coli 260441G): Green
colour (E. coli 260458Y): Green
colour (E. coli 260459W): Green
colour (E. coli 260463D): Green
colour (E. coli 260464G): Green
colour (E. coli 260471B): —
colour (E. coli 260478N): —
colour (E. coli 260479Q): Green
colour (E. coli 260480M): Green
colour (E. coli 260481J): Green
colour (E. coli 260483R): —
colour (E. coli 260485D): Green
colour (E. coli 260486L): Green
colour (E. coli 260492J): Green
colour (E. coli 260494B): Green
colour (E. coli 260495R): —
colour (E. coli 260497D): Green
colour (E. coli 260502G): Green
colour (E. coli 260503Z): Green
colour (E. coli 260504N): Green
colour (E. coli 260505Q): —
colour (E. coli 260506E): Green
colour (E. coli 260508Y): Green
colour (E. coli 260509W): Green
colour (E. coli 260510R): Green
colour (E. coli 260511X): Green
colour (E. coli 260514G): —
colour (E. coli 260515Z): —
colour (E. coli 260521S): Green
colour (E. coli 260522Z): Green
colour (E. coli 260532S): Green
colour (E. coli 260533G): Green
colour (E. coli 260536Q): Green
colour (E. coli 260537E): —
colour (E. coli 260538H): —
colour (E. coli 260539Y): Green
colour (E. coli 260541R): Green
colour (E. coli 260545G): Green
colour (E. coli 260547N): Green
colour (E. coli 260548Q): Green
colour (E. coli 260549E): Green
colour (E. coli 260553X): —
colour (E. coli 260554D): Green
colour (E. coli 260555L): Green
colour (E. coli 260563B): Green
colour (E. coli 260564R): Green
colour (E. coli 260578D): —
colour (E. coli 2603121P): —
colour (E. coli 2604399E): Green
colour (E. coli O157 non-toxigenic): —
colour of positive colonies (in words): green colonies
